Laboratory results reported in ChEMBL document CHEMBL1649248, “Two distinct major facilitator superfamily drug efflux pumps mediate chloramphenicol resistance in Streptomyces coelicolor” (2009).
Converted amounts (≈) assume the structure as drawn. Peptide text beside a SMILES is read from it. * marks the point of attachment. βNA = c1ccc2cc(N*)ccc2c1

Experiments:
Streptomyces coelicolor [1] = test: Inhibition of MFS efflux pump in Streptomyces coelicolor assessed as reduction in chloramphenicol MIC at 10 ug/ml after 48 hrs relative to control
Streptomyces coelicolor [2] = test: Inhibition of MFS efflux pump in Streptomyces coelicolor assessed as reduction in chloramphenicol MIC at 25 ug/ml after 48 hrs relative to control
Streptomyces coelicolor [3] = test: Inhibition of MFS efflux pump in Streptomyces coelicolor assessed as reduction in chloramphenicol MIC at 50 ug/ml after 48 hrs relative to control
Streptomyces coelicolor [4] = test: Inhibition of MFS efflux pump in Streptomyces coelicolor assessed as reduction in chloramphenicol MIC at 75 ug/ml after 48 hrs relative to control
Streptomyces coelicolor [5] = test: Inhibition of MFS efflux pump in apramycin-resistant cmlR1 null mutant Streptomyces coelicolor assessed as reduction in chloramphenicol MIC at 10 ug/ml after 48 hrs relative to control
Streptomyces coelicolor [6] = test: Inhibition of MFS efflux pump in apramycin-resistant cmlR1 null mutant Streptomyces coelicolor assessed as reduction in chloramphenicol MIC at 25 ug/ml after 48 hrs relative to control
Streptomyces coelicolor [7] = test: Inhibition of MFS efflux pump in apramycin-resistant cmlR1 null mutant Streptomyces coelicolor assessed as reduction in chloramphenicol MIC at 50 ug/ml after 48 hrs relative to control
Streptomyces coelicolor [8] = test: Inhibition of MFS efflux pump in apramycin-resistant cmlR1 null mutant Streptomyces coelicolor assessed as reduction in chloramphenicol MIC at 75 ug/ml after 48 hrs relative to control
Streptomyces coelicolor [9] = test: Inhibition of MFS efflux pump in apramycin-resistant cmlR2 null mutant Streptomyces coelicolor assessed as reduction in chloramphenicol MIC at 10 ug/ml after 48 hrs relative to control
Streptomyces coelicolor [10] = test: Inhibition of MFS efflux pump in apramycin-resistant cmlR2 null mutant Streptomyces coelicolor assessed as reduction in chloramphenicol MIC at 25 ug/ml after 48 hrs relative to control
Streptomyces coelicolor [11] = test: Inhibition of MFS efflux pump in apramycin-resistant cmlR2 null mutant Streptomyces coelicolor assessed as reduction in chloramphenicol MIC at 50 ug/ml after 48 hrs relative to control
Streptomyces coelicolor [12] = test: Inhibition of MFS efflux pump in apramycin-resistant cmlR2 null mutant Streptomyces coelicolor assessed as reduction in chloramphenicol MIC at 75 ug/ml after 48 hrs relative to control
Streptomyces coelicolor [13] = test: Antimicrobial activity against apramycin-resistant cmlR1 null mutant Streptomyces coelicolor B754 after 48 hrs relative to wild type; format: functional
Streptomyces coelicolor [14] = test: Antimicrobial activity against apramycin-resistant cmlR2 null mutant Streptomyces coelicolor B756 after 48 hrs relative to wild type; format: functional
Streptomyces coelicolor [15] = test: Antimicrobial activity against Streptomyces coelicolor B758 overexpressing cmlR1 after 48 hrs relative to wild type; format: functional
Streptomyces coelicolor [16] = test: Antimicrobial activity against Streptomyces coelicolor B759 overexpressing cmlR2 after 48 hrs relative to wild type; format: functional
Streptomyces coelicolor [17] = test: Antimicrobial activity against Streptomyces coelicolor after 48 hrs; format: functional

`COC(=O)[C@H]1[C@H]2C[C@@H]3c4[nH]c5cc(OC)ccc5c4CCN3C[C@H]2C[C@@H](OC(=O)c2cc(OC)c(OC)c(OC)c2)[C@@H]1OC` was tested, and the fold change (FC) (Streptomyces coelicolor [1]) was 1.3, the fold change (FC) (Streptomyces coelicolor [2]) was 2.7 and the fold change (FC) (Streptomyces coelicolor [3]) was 4. The fold change (FC) (Streptomyces coelicolor [4]) was 4, the fold change (FC) (Streptomyces coelicolor [5]) was 2.5 and the fold change (FC) (Streptomyces coelicolor [6]) was 2.5. The fold change (FC) (Streptomyces coelicolor [7]) was 3.3, the fold change (FC) (Streptomyces coelicolor [8]) was 3.3 and the fold change (FC) (Streptomyces coelicolor [9]) was 1.3. It also gave a fold change (FC) (Streptomyces coelicolor [10]) of 2, a fold change (FC) (Streptomyces coelicolor [11]) of 2 and a fold change (FC) (Streptomyces coelicolor [12]) of 2.

For `O=C(N[C@H](CO)[C@H](O)c1ccc([N+](=O)[O-])cc1)C(Cl)Cl` [CHLORAMPHENICOL], the “fold change (FC)” value (Streptomyces coelicolor [13]) was 1.6, the “fold change (FC)” value (Streptomyces coelicolor [14]) was 16 and the “fold change (FC)” value (Streptomyces coelicolor [15]) was 2. The “fold change (FC)” value (Streptomyces coelicolor [16]) was 4.

In the case of `CS(=O)(=O)c1ccc([C@@H](O)[C@@H](CF)NC(=O)C(Cl)Cl)cc1` [FLORFENICOL], the “fold change (FC)” value (Streptomyces coelicolor [13]) is reported as 1.8 and the “fold change (FC)” value (Streptomyces coelicolor [14]) is reported as 3.

`N=C(N)NCCC[C@H](NC(=O)[C@@H](N)Cc1ccccc1)C(=O)Nc1ccc2ccccc2c1` [PABETAN] (H-Phe-Arg-βNA) showed a fold change (FC) (Streptomyces coelicolor [1]) of 2.7, a fold change (FC) (Streptomyces coelicolor [2]) of 3.2 and a fold change (FC) (Streptomyces coelicolor [3]) of 4. It also gave a fold change (FC) (Streptomyces coelicolor [4]) of 8, a fold change (FC) (Streptomyces coelicolor [5]) of 2.5 and a fold change (FC) (Streptomyces coelicolor [6]) of 3.3. It also gave a fold change (FC) (Streptomyces coelicolor [7]) of 3.3, a fold change (FC) (Streptomyces coelicolor [8]) of 5 and a fold change (FC) (Streptomyces coelicolor [9]) of 1.7. It also gave a fold change (FC) (Streptomyces coelicolor [10]) of 1.7, a fold change (FC) (Streptomyces coelicolor [11]) of 1.7 and a fold change (FC) (Streptomyces coelicolor [12]) of 1.7. The MIC (Streptomyces coelicolor [17]) was 200 µg/mL (≈ 448 µM).

For `CS(=O)(=O)c1ccc([C@@H](O)[C@@H](CO)NC(=O)C(Cl)Cl)cc1` [THIAMPHENICOL], the “fold change (FC)” value (Streptomyces coelicolor [14]) was over 10.
